Values joined by “and” are separate entries in the source; they are usually repeats but may differ in a detail not shown here. Equal entries are not always repeated.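 Method: 48-hour compound exposure of cells in 96-well plates, five concentrations, linear interpolation of endpoints. GI50 = concentration required for 50% inhibition of growth. TGI denotes the concentration required for complete inhibition of growth.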
Columns and labels:
Experiment in all cases: growth of human tumour cells (NCI), 48 h
786-0 renal = system: 786-0 renal
A498 renal = system: A498 renal
A549 NSCLC = system: A549 NSCLC
ACHN renal = system: ACHN renal
BT-549 breast = system: BT-549 breast
CAKI-1 renal = system: CAKI-1 renal
CCRF-CEM leukemia = system: CCRF-CEM leukemia
COLO 205 colon = system: COLO 205 colon
DU-145 prostate = system: DU-145 prostate
EKVX NSCLC = system: EKVX NSCLC
HCC-2998 colon = system: HCC-2998 colon
HCT-116 colon = system: HCT-116 colon
HCT-15 colon = system: HCT-15 colon
HL-60(TB) leukemia = system: HL-60(TB) leukemia
HOP-62 NSCLC = system: HOP-62 NSCLC
HOP-92 NSCLC = system: HOP-92 NSCLC
HS 578T breast = system: HS 578T breast
HT29 colon = system: HT29 colon
IGROV1 ovarian = system: IGROV1 ovarian
K-562 leukemia = system: K-562 leukemia
KM12 colon = system: KM12 colon
LOX IMVI melanoma = system: LOX IMVI melanoma
M14 melanoma = system: M14 melanoma
MALME-3M melanoma = system: MALME-3M melanoma
MCF7 breast = system: MCF7 breast
MDA-MB-231 breast = system: MDA-MB-231 breast
MDA-MB-435 = system: MDA-MB-435
MOLT-4 leukemia = system: MOLT-4 leukemia
NCI-H226 lung = system: NCI-H226 lung
NCI-H23 lung = system: NCI-H23 lung
NCI-H460 lung = system: NCI-H460 lung
NCI-H522 lung = system: NCI-H522 lung
NCI/ADR-RES ovarian = system: NCI/ADR-RES ovarian
OVCAR-3 ovarian = system: OVCAR-3 ovarian
OVCAR-4 ovarian = system: OVCAR-4 ovarian
OVCAR-5 ovarian = system: OVCAR-5 ovarian
OVCAR-8 ovarian = system: OVCAR-8 ovarian
PC-3 prostate = system: PC-3 prostate
RPMI-8226 leukemia = system: RPMI-8226 leukemia
RXF 393 renal = system: RXF 393 renal
SF-268 CNS = system: SF-268 CNS
SF-295 CNS = system: SF-295 CNS
SF-539 CNS = system: SF-539 CNS
SK-MEL-2 melanoma = system: SK-MEL-2 melanoma
SK-MEL-28 melanoma = system: SK-MEL-28 melanoma
SK-MEL-5 melanoma = system: SK-MEL-5 melanoma
SK-OV-3 ovarian = system: SK-OV-3 ovarian
SN12C renal = system: SN12C renal
SNB-19 CNS = system: SNB-19 CNS
SNB-75 CNS = system: SNB-75 CNS
SW-620 colon = system: SW-620 colon
T-47D breast = system: T-47D breast
TK-10 renal = system: TK-10 renal
U251 CNS = system: U251 CNS
UACC-257 melanoma = system: UACC-257 melanoma
UACC-62 melanoma = system: UACC-62 melanoma
UO-31 renal = system: UO-31 renal

CCN(CC)CCNc1ccc(C)c2sc3ccccc3c(=O)c12 (tested in a mixture with another compound)
GI50 (786-0 renal): 1.79 µM
TGI (786-0 renal): 4.83 µM and 11.4 µM
GI50 (A498 renal): 1.83 µM
TGI (A498 renal): 4.11 µM and 7.09 µM
GI50 (A549 NSCLC): 1.63 µM
TGI (A549 NSCLC): 3.24 µM and 8.53 µM
GI50 (ACHN renal): 2.34 µM and 2.2 µM
TGI (ACHN renal): 5.47 µM and 5.97 µM
GI50 (BT-549 breast): 6.4 µM
TGI (BT-549 breast): 16.3 µM and 21.4 µM
GI50 (CAKI-1 renal): 1.38 µM and 0.694 µM
TGI (CAKI-1 renal): 4.5 µM and 6.47 µM
GI50 (CCRF-CEM leukemia): 2.84 µM and 3.05 µM
TGI (CCRF-CEM leukemia): 8.82 µM and 10.6 µM
TGI (COLO 205 colon): 3 µM and 3.1 µM
GI50 (DU-145 prostate): 2.58 µM and 3.08 µM
TGI (DU-145 prostate): 9.14 µM and 8.92 µM
GI50 (EKVX NSCLC): 5.1 µM and 4.96 µM
TGI (EKVX NSCLC): 19.7 µM and 19.5 µM
GI50 (HCC-2998 colon): 1.55 µM and 1.94 µM
TGI (HCC-2998 colon): 3.03 µM and 4.51 µM
GI50 (HCT-116 colon): 1.5 µM
TGI (HCT-116 colon): 2.9 µM and 3.62 µM
TGI (HCT-15 colon): 11.1 µM and 9.1 µM
GI50 (HL-60(TB) leukemia): 2.41 µM
TGI (HL-60(TB) leukemia): 3.72 µM and 7.76 µM
GI50 (HOP-62 NSCLC): 1.54 µM and 2.07 µM
TGI (HOP-62 NSCLC): 3.12 µM and 5.88 µM
GI50 (HOP-92 NSCLC): 1.34 µM and 1.76 µM
TGI (HOP-92 NSCLC): 6.77 µM and 8.86 µM
GI50 (HS 578T breast): 1.91 µM and 1.78 µM
TGI (HS 578T breast): 4.75 µM and 5 µM
TGI (HT29 colon): 3.79 µM
GI50 (IGROV1 ovarian): 1.54 µM and 2.75 µM
TGI (IGROV1 ovarian): 3.1 µM and 9.38 µM
TGI (K-562 leukemia): 3.92 µM and 4.27 µM
TGI (KM12 colon): 9.82 µM and 11.6 µM
GI50 (LOX IMVI melanoma): 1.86 µM and 1.7 µM
TGI (LOX IMVI melanoma): 3.88 µM and 3.81 µM
TGI (M14 melanoma): 3.05 µM and 3.14 µM
GI50 (MALME-3M melanoma): 1.65 µM and 1.71 µM
TGI (MALME-3M melanoma): 3.46 µM and 3.45 µM
GI50 (MCF7 breast): 1.81 µM and 1.75 µM
TGI (MCF7 breast): 3.85 µM and 3.73 µM
GI50 (MDA-MB-231 breast): 1.72 µM and 1.83 µM
TGI (MDA-MB-231 breast): 3.56 µM and 3.98 µM
TGI (MDA-MB-435): 4.13 µM and 4.21 µM
GI50 (MOLT-4 leukemia): 2.55 µM and 2.57 µM
TGI (MOLT-4 leukemia): 6.33 µM and 6.48 µM
GI50 (NCI-H226 lung): 1.62 µM and 2.27 µM
TGI (NCI-H226 lung): 3.25 µM and 5.09 µM
GI50 (NCI-H23 lung): 2.32 µM
TGI (NCI-H23 lung): 6.01 µM and 11.4 µM
TGI (NCI-H460 lung): 3.81 µM and 3.58 µM
GI50 (NCI-H522 lung): 3.34 µM
TGI (NCI-H522 lung): 13.3 µM
GI50 (NCI/ADR-RES ovarian): 3.21 µM and 3.19 µM
TGI (NCI/ADR-RES ovarian): 12.2 µM and 13.5 µM
GI50 (OVCAR-3 ovarian): 2.43 µM
TGI (OVCAR-3 ovarian): 6.92 µM and 7.23 µM
GI50 (OVCAR-4 ovarian): 3.91 µM
TGI (OVCAR-4 ovarian): 13.6 µM and 17.3 µM
GI50 (OVCAR-5 ovarian): 1.8 µM and 2.35 µM
TGI (OVCAR-5 ovarian): 3.98 µM and 5.87 µM
GI50 (OVCAR-8 ovarian): 6.63 µM
TGI (OVCAR-8 ovarian): 76.9 µM
GI50 (PC-3 prostate): 2.77 µM
TGI (PC-3 prostate): 6.63 µM and 12.4 µM
TGI (RPMI-8226 leukemia): 4.49 µM and 4.35 µM
TGI (RXF 393 renal): 5.16 µM
GI50 (SF-268 CNS): 3.91 µM and 3.3 µM
TGI (SF-268 CNS): 14.8 µM and 12.5 µM
TGI (SF-295 CNS): 5.3 µM and 5.37 µM
GI50 (SF-539 CNS): 1.92 µM and 2.25 µM
TGI (SF-539 CNS): 4.06 µM and 5.45 µM
TGI (SK-MEL-2 melanoma): 8.28 µM
TGI (SK-MEL-28 melanoma): 3.3 µM and 3.27 µM
GI50 (SK-MEL-5 melanoma): 1.54 µM and 1.69 µM
TGI (SK-MEL-5 melanoma): 2.98 µM and 3.09 µM
GI50 (SK-OV-3 ovarian): 2.11 µM and 2.91 µM
TGI (SK-OV-3 ovarian): 5.63 µM and 9.21 µM
GI50 (SN12C renal): 4.38 µM
TGI (SN12C renal): 12.7 µM and 18 µM
GI50 (SNB-19 CNS): 3.95 µM
TGI (SNB-19 CNS): 11.4 µM and 15.7 µM
TGI (SNB-75 CNS): 4.6 µM and 6.21 µM
TGI (SW-620 colon): 3.46 µM and 3.72 µM
GI50 (T-47D breast): 1.75 µM and 2.29 µM
TGI (T-47D breast): 4.64 µM and 7.22 µM
GI50 (TK-10 renal): 2.73 µM
TGI (TK-10 renal): 5.64 µM and 12.2 µM
TGI (U251 CNS): 6.92 µM and 8.17 µM
GI50 (UACC-257 melanoma): 2.31 µM
TGI (UACC-257 melanoma): 4.8 µM
GI50 (UACC-62 melanoma): 1.08 µM
TGI (UACC-62 melanoma): 2.49 µM and 3.79 µM
TGI (UO-31 renal): 3.79 µM

CC1=NN(C2=NS(=O)(=O)c3ccccc3N2C)C(=O)C1
TGI (786-0 renal): > 100 µM
TGI (A498 renal): > 100 µM
TGI (A549 NSCLC): > 100 µM
TGI (ACHN renal): > 100 µM
TGI (BT-549 breast): > 100 µM
TGI (CAKI-1 renal): > 100 µM
TGI (CCRF-CEM leukemia): > 100 µM
TGI (COLO 205 colon): > 100 µM
TGI (DU-145 prostate): > 100 µM
TGI (EKVX NSCLC): > 100 µM
TGI (HCC-2998 colon): > 100 µM
TGI (HCT-116 colon): > 100 µM
TGI (HCT-15 colon): > 100 µM
TGI (HL-60(TB) leukemia): > 100 µM
TGI (HOP-62 NSCLC): > 100 µM
TGI (HOP-92 NSCLC): > 100 µM
TGI (HS 578T breast): > 100 µM
TGI (HT29 colon): > 100 µM
TGI (IGROV1 ovarian): > 100 µM
TGI (K-562 leukemia): > 100 µM
TGI (KM12 colon): > 100 µM
TGI (LOX IMVI melanoma): > 100 µM
TGI (M14 melanoma): > 100 µM
TGI (MCF7 breast): > 100 µM
TGI (MDA-MB-231 breast): > 100 µM
TGI (MDA-MB-435): > 100 µM
TGI (MOLT-4 leukemia): > 100 µM
TGI (NCI-H226 lung): > 100 µM
TGI (NCI-H23 lung): > 100 µM
TGI (NCI-H460 lung): > 100 µM
TGI (NCI-H522 lung): > 100 µM
TGI (NCI/ADR-RES ovarian): > 100 µM
TGI (OVCAR-3 ovarian): > 100 µM
TGI (OVCAR-4 ovarian): > 100 µM
TGI (OVCAR-5 ovarian): > 100 µM
TGI (OVCAR-8 ovarian): > 100 µM
TGI (PC-3 prostate): > 100 µM
TGI (RXF 393 renal): > 100 µM
TGI (SF-268 CNS): > 100 µM
TGI (SF-295 CNS): > 100 µM
TGI (SF-539 CNS): > 100 µM
TGI (SK-MEL-2 melanoma): > 100 µM
TGI (SK-MEL-28 melanoma): > 100 µM
TGI (SK-MEL-5 melanoma): > 100 µM
TGI (SK-OV-3 ovarian): > 100 µM
TGI (SN12C renal): > 100 µM
TGI (SNB-19 CNS): > 100 µM
TGI (SW-620 colon): > 100 µM
TGI (T-47D breast): > 100 µM
TGI (TK-10 renal): > 100 µM
TGI (U251 CNS): > 100 µM
TGI (UACC-257 melanoma): > 100 µM
TGI (UACC-62 melanoma): > 100 µM
TGI (UO-31 renal): > 100 µM
